From US9421193B2, “Benzothiazole derivatives and a use thereof for the treatment of cancer” (Korea Institute of Radiological & Medical Sciences, priority 2014, dated 2016)

Columns and labels:
[1] = test system: non-small cell lung cancer cell strain H460; assay: Trypan blue live cell count (cell viability); type: cell-based, human; settings: FIGS. 3A and 3B, PB12 at 150 μM
Procedure: Whether the cancer cell growth inhibitory effects of the compounds PB01 and PB11 on the non-small cell lung cancer cell strains is associated with apoptosis was investigated. The cell growth inhibitory effects were evaluated by a trypan blue assay, and cell shapes were observed using an inverted microscope. The shapes of cell nuclei were observed via Hoeschst 33342 staining. Degrees of inducing apoptosis were quantized by flow cytometry (fluorescent activated cell sorting (FACS)).
After about 5×10^3 cells per well of each of the human non-small cell lung cancer cell strains A549 and H460 were portioned into a 96-well plate, about 10 uM to about 50 uM of the compounds PB01 or PB11 in 200 ul of culture solution were added into the wells, and incubated for about 8 to 72 hours. Cells were collected from the incubation product, and centrifuged at about 2,000 rpm for 5 minutes. After removing a supernatant, the remaining cells were mixed with 1 mL of phosphate-buffered saline (PBS) to obtain a cell suspension, which was then mixed with an equal amount of 0.5% trypan blue (Gibco BRL), followed by treatment for about 1 minute. The number of live cells was counted using a phase-contrast) microscope. The live cell counting was repeated three times, and an average live cell count and a standard error were calculated using a Microsoft Excel program. Cell viability graphs with respect to compound concentration and incubation time were obtained. The same experiment was performed with 50 μM of the compound PB01, PB11 50 μM of the compound PB11, or 150 μM of the compound PB12 150 μM, and cell viability graphs with respect to compound concentration and incubation time were obtained.

[2] = test system: non-small cell lung cancer cell strain H460; assay: Apoptosis ratio, Annexin V flow cytometry; type: cell-based, human; settings: about 40 hours, 50 μM PB01, 50 μM PB11, 150 μM PB12, FIGS. 9A and 9B
Procedure: About 5×10^5 cells per well of each of the non-small cell lung cancer cell strains A549 and H460 were portioned into a 6-well plate and then incubated with the compounds PB01 or PB11 for about 40 hours in the same manner as described above. A cell layer was washed with PBS and then treated with trypsin-EDTA solution to isolate cells. The isolated cells were collected and stained with an Annexin V Flous Staining kit (available Roche Applied Science, Penzberg, Germany) in a dark condition for about 30 minutes. The stained cells were analyzed by flow cytometry using a FACScan™ (available from Becton Dicknson) to count the number of dead cells and then calculate an apoptosis ratio. The same experiment was performed with 50 μM of PB01, 50 μM of PB11, or 150 μM of PB12 in the same manner as described above. The graphs of cell viability with respect to compound concentration and incubation time obtained based on the experimental results are shown in FIGS. 9A and 9B.

Cc1noc(C)c1CSc1nc2ccc(NC(=O)C3CCC(O)CC3)cc2s1 (centres unmarked) [PB12]
cancer cell apoptosis effect with respect to concentration and incubation time [1]: improved cancer cell apoptosis effects with increases in concentration and incubation time
apoptosis induction (Annexin V) [2]: kill the non-small cell lung cancer cells by inducing apoptosis
